The source of these data is PubChem BioAssay AID1963831 (Molecular Pharmacology Branch, DTP, NCI, 2024).

By viability, T/C is commonly meant the result in the treated group divided by that in the control group, in per cent. By IC50 is commonly meant the concentration that gives 50% inhibition.

This experiment has as its system 889142-216-R-J1-PDC complex spheroid viability. Nature of the experiment: Anticancer human tumor 889142-216-R-J1-PDC patient-derived bladder carcinoma cell line growth inhibition [POLQ]. The settings on record: for viability, T/C: stronger effect = lower value. How it is done: Multicellular complex tumor spheroid response to Polymerase (POL) inhibitors (novobiocin, ART-558, RP6685) in combination with a variety of drugs and investigational agents in selected tumor cell lines
The POL inhibitors (novobiocin, ART-558, and RP6685) were evaluated both individually and in combination with standard of care and investigational anticancer small molecules within a complex spheroid model of solid tumors. . Complex spheroids include a stromal component modeled by human endothelial cells (HUVEC) and fibroblasts modeled by human mesenchymal stem cells (MSCs). The concentration ranges selected for each drug and investigational agent were based upon clinically achievable concentrations if the clinical Cmax of the agent was known.
Compounds. The drugs and investigational agents: novobiocin (NSC847541), ART-558 (NSC835418), RP-6685 (NSC848927), peposertib (NSC802822), ceralasertib (NSC780249), elimusertib (NSC800525), camonsertib (NSC841442), AZD-1390 (NSC803789), olaparib (NSC753686), talazoparib (NSC767125), rucaparib (NSC756644), sotorasib (NSC818433), MRTX-1133 (NSC836407), SN-38 (NSC673596), topotecan (NSC609699), epotoside (NSC141540), doxorubicin (NSC123127), gemcitabine (NSC613327), 5-fluorouracil (NSC19893), paclitaxel (NSC125973), vemurafenib (NSC761431), MSA-2 (NSC828583), SN-011 (NSC837082), adavosertib (NSC754352), prexasertib (NSC758257), carboplatin (NSC241240) and oxaliplatin (NSC266046), were obtained from the National Cancer Institute (NCI) Developmental Therapeutics Program Chemical Repository (21). The FDA-approved anticancer drug set is available from the Developmental Therapeutics Program at https://dtp.cancer.gov/organization/dscb/obtaining/. […] The stock solutions were prepared in dimethyl sulfoxide (DMSO, Sigma-Aldrich, St. Louis, MO, cat. D2650), except for the platinum compounds which were prepared in saline (Quality Biological, Gaithersburg, MD, cat. 114-055-101), at 800-fold the tested concentration and stored at -70 degrees C prior to their use. All drugs and investigational agents were tested over a range starting from a high concentration at or near the clinical Cmax and decreasing in half-log increments. If the clinical Cmax for an agent had not been determined, the highest concentration tested was 10 microM, except for SN-38, which was tested at a high concentration of 1 microM.
Cell Culture. All cells were maintained in an incubator at 37 degrees C and 5% CO2 with 95% humidity. The PDC lines were cultured according to standard operating procedures established by the NCI PDMR (https://pdmr.cancer.gov). Table 3 of the manuscript, lists the cell lines along with the number of the three cell types plated to form the mct-spheroids and media for tumor cell growth. After thawing, all PDC lines, except 997537-175-T-J1-PDC and 415267-285-R-J2-PDC, were cultured in Matrigel-coated flasks prepared with a working solution of 1X Ham's F-12 nutrient mix, without supplementation (Thermo Fisher Scientific, cat. 11765054), 100 U/mL penicillin-streptomycin (Thermo Fisher Scientific, cat. 15140122), and 2.5% Matrigel (Corning Inc., Corning, NY, cat. 354248) for the first three passages. The two PDC lines 997537-175-T-J1-PDC and 415267-285-R-J2-PDC were cultured on uncoated flasks. The 857933-349-R-J2-PDC line was cultured in 6C/Colon 1B media containing advanced DMEM/F-12 (Thermo Fisher Scientific, cat. 12634028), 10 mM HEPES (Thermo Fisher Scientific, cat. 15630080), 1X GlutaMAX supplement (Thermo Fisher Scientific, cat. 35050061), 0.1 mg/mL primocin (InvivoGen, San Diego, CA, cat. ant-pm-2), 10% defined fetal bovine serum, heat inactivated (HyClone Laboratories Inc., Logan, UT, cat. SH30070.03HI), 50% L-WRN conditioned media (ATCC, cat. CRL-3276), 1.25 mM N-Acetyl-L-cysteine (Sigma-Aldrich, cat. A9165), 10 mM nicotinamide (Sigma-Aldrich, cat. N0636), 1X B-27 supplement (Thermo Fisher Scientific, cat. 17504044), 1X N-2 supplement (Thermo Fisher Scientific, cat. […]

[1] abbreviates: compound alone, run of 01/19/2024.

“And” between values parts separate entries of the source, which are not always exact repeats. Identical values can stand only once.
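Note: spheroids exposed to compounds for seven days.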

Consider `C#Cc1c(F)ccc2cc(O)cc(-c3ncc4c(N5CC6CCC(C5)N6)nc(OCC56CCCN5CC(F)C6)nc4c3F)c12` (centres undefined), for which the viability, T/C (compound 0.0316 µM) was 97.4% and 84.7% and 98.7%; the viability, T/C (compound 0.1 µM) is 87.7% and 85.2% and 98.1%; the viability, T/C (compound 0.316 µM) was 79.3% and 79.1% and 79.6%; the viability, T/C (compound 1 µM) is 67.5% and 74.8% and 66.9%; the viability, T/C (compound 3.16 µM) is 80.7% and 73.1% and 71.4%; the viability, T/C (compound 10 µM) was 37.6% and 42.5% and 32%. For the same molecule, for the setting “curve of compound”, the IC50 is 6.76 µM and 7.47 µM and 4.99 µM.

With `CC1COCCN1c1cc(C2(O)CC3CCC(C2)O3)c2cnn(-c3ccn[nH]3)c2n1` (centres undefined), the viability, T/C reads like this: (compound 0.0316 µM) 57.4% and 69.5% and 69.9%; (compound 0.1 µM) 44% and 49.5% and 54.2%; (compound 0.316 µM) 43.3% and 37.3% and 38.3%; (compound 1 µM) 32.6% and 33.5% and 34.5%; (compound 3.16 µM) 26% and 30.2% and 30.3%; (compound 10 µM) 14.7% and 11.1% and 17.2%. Also, the IC50 (curve of compound) was 0.0757 µM and 0.135 µM and 0.153 µM.

Consider `CCc1cc2c(N3CCc4c(cc(Cn5ccnc5)cc4-c4cn(C)nc4C(F)(F)F)C3=O)cc(C)nc2c(OC)n1`, for which the viability, T/C reads like this: (compound 0.0316 µM) 103% and 102% and 111%; (compound 0.1 µM) 116% and 114% and 108%; (compound 0.316 µM) 123% and 119% (2×); (compound 1 µM) 132% and 112% and 96.6%; (compound 3.16 µM) 118% and 106% and 84.9%; (compound 10 µM) 84.3% and 82.2% and 71.1%. Besides, under “curve of compound”, the IC50 was above 10 µM.

Turning to `Cc1cccc(N(C)C(=O)C2C(O)CCN2c2nc(C)cc(C(F)(F)F)c2C#N)c1` (centres undefined), the viability, T/C (compound 3.16 µM) is 94.3% [middle of 13 runs]. Also, the IC50 by setting is: (compound alone, run of 01/08/2024) above 10 µM; under setting [1], above 10 µM.

Take `Nc1ccc(C#CCN(C(=O)Cc2ncc(C(F)(F)F)cc2C(F)(F)F)c2ccc(F)cc2)nn1`: the viability, T/C is, setting by setting: (compound 0.1 µM) 95.3% [middle of 13 runs]; (compound 10 µM) 102% [middle of 13 runs]. The half-inhibitory concentration (IC50) under setting [1] was above 10 µM.

`O=C(Nc1ccc(O)c(NS(=O)(=O)c2ccc(F)cc2)c1)c1ccc(-c2ccccc2)cc1`: the viability, T/C reads like this: (compound 0.0316 µM) 91.2% and 109% and 105%; (compound 0.1 µM) 85.2% and 97.7% and 112%; (compound 0.316 µM) 114% and 129% and 88%; (compound 1 µM) 112% and 139% and 119%; (compound 3.16 µM) 101% and 130% and 122%; (compound 10 µM) 75.8% and 76.8% and 71.4%. Further, the concentration for half-maximal inhibition (IC50) (curve of compound) was above 10 µM.
